Key:
[1] = administered to human beings; cited from earlier work
[2] = target: T1, Rat Liver 3-hydroxy-3-methylglutarylcoenzyme A Reductase (Rattus norvegicus, UniProt P51639); test: Assay of HMGCoA reductase (rat liver microsomes), in vitro; assay type: biochemical; conditions: 20 min, 37° C., DMSO control 652, none 1254
T1 construct: rat liver microsome (75 μg protein); from tissue; host or cells: rat liver microsomes
T1 sequence (P51639 1-887): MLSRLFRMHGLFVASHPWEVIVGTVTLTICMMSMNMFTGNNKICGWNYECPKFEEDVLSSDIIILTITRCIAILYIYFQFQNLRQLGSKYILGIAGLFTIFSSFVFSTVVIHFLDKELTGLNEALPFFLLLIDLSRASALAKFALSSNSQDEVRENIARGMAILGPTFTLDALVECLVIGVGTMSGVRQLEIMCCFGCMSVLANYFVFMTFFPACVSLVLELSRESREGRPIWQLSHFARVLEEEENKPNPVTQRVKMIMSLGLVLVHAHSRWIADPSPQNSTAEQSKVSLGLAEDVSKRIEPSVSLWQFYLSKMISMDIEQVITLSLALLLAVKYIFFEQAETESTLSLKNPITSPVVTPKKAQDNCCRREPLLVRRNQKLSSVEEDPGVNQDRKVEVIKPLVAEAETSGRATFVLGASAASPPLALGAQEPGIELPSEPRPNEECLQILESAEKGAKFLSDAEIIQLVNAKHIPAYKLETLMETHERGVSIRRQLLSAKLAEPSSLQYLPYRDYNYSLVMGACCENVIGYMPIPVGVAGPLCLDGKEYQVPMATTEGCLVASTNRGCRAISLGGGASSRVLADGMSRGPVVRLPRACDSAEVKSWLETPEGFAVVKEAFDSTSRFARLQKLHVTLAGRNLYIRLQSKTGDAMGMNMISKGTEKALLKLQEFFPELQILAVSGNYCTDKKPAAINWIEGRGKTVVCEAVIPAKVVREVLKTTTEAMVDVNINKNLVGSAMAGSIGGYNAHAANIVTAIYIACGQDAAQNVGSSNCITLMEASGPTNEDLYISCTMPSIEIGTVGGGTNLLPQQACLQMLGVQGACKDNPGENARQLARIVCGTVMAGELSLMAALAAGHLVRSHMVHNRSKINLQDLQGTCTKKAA
Description: Ethylcompactin and mevinolin were dissolved in DMSO. Aliquots (10 μl) of each were incubated with 50 μl of 50 mM Pot. phosphate pH 7.4, 70 mM KCl, 30 mM EDTA, 10 mM DTT for 30 min at 37° C. to delactonize the compounds. Control incubations were done with 10 μL DMSO.
Assay of HMGCoA reductase was carried out as described by George and Ramasarma, [George R., Ramasarma, T., Biochem. J. (1977) 162:493-499]. At the end of 30 min, incubation for […], rat liver microsome (75 μg protein) were added to each tube along with glucose-6-phosphate (577 μM) glucose-6-phosphate dehydrogenase (0.05 unit/assay) and MADPH ([…]) and incubated for an additional 10 min at 37° C.
HMGCoA reductase reaction was initiated by the additon of 3-^14 C-HMGCoA ([…], final) and carried out for 20 min at 37° C. in a total volume of 100 μl. The reaction was terminated by the addition of 5N HCl (25 μl) containing known amounts of ^3 -H-Mevalonolactone as internal standard and non-radioactive mevalonolactone (0.6 mg/assay) as carrier. Mevalonic acid formed in the assay was allowed to lactonize by incubating the mixture for 30 min at 37° C. The precipitated protein was removed by centrifugation in a microfuge. An aliquot of the supernatant (40 μl) was applied on silica gel G (0.25 mm thickness) plates and the chromatogram developed with Acetone:Benzene (3:2). The spot corresponding to the mevalonolactone (Rf 0.5) was scraped off and the radioactivity estimated by liquid scintillation counting. Mevalonic acid formed was calcualted from the recovery of internal standard. Microsomal protein was estimated by the method of Lowry [J. Biol. Chem. (1951) 193:265-275 ] after precipitation according to Bensadoun and Weinstein [Anal. Biochem. (1976) 70:241-250]. The specific activity of HMGCoA reductase is expressed as p moles of mevalonic acid formed per minute per mg of microsomal protein.

[3] = based on existing biological data; cited from earlier work
[4] = 100 nM in assay (in 10 μl DMSO)

Structure (SMILES) | concentration in the blood of LDL cholesterol [1] | HMGCoA Reductase Activity ([2]; 1 nM in assay (in 10 μl DMSO)) | HMGCoA Reductase Activity [2, 4] | HMGCoA Reductase Activity ([2]; 1 μM in assay (in 10 μl DMSO)) | HMGCoA Reductase Activity ([2]; 10 μM in assay (in 10 μl DMSO)) | activity in lowering LDL cholesterol levels as compared to Compactin [3]
CC[C@H](C)C(=O)O[C@H]1CCC=C2C=C[C@H](C)[C@H](CC[C@@H]3C[C@@H](O)CC(=O)O3)[C@H]21 [Compactin, (+)-Compactin] | reduced |  |  |  |  | 
CC[C@H]1C=C2C=C[C@H](C)[C@H](CC[C@@H]3C[C@@H](O)CC(=O)O3)[C@H]2[C@@H](OC(=O)[C@@H](C)CC)C1 [Ethyl Compactin, (+)-3-Ethylcompactin] |  | 730 pmol Mevalonate formed/min/mg | 361 pmol Mevalonate formed/min/mg | 182 pmol Mevalonate formed/min/mg | 20 pmol Mevalonate formed/min/mg | 
CC[C@H](C)C(=O)O[C@H]1C[C@@H](C)C=C2C=C[C@H](C)[C@H](CC[C@@H]3C[C@@H](O)CC(=O)O3)[C@H]21 [Mevinolin, (+)-Mevinolin] | reduced | 609 pmol Mevalonate formed/min/mg | 303 pmol Mevalonate formed/min/mg | 113 pmol Mevalonate formed/min/mg | 52 pmol Mevalonate formed/min/mg | several times more active
